How the values were obtained:
[1] = tested on: poly (dG.dC) - poly (dG.dC); experiment: Ethidium bromide displacement, poly(dG.dC)-poly(dG.dC); format: binding
Protocol: (§1) A 10× Binding solution was prepared by combining 0.93 ml of an aqueous NaCl solution (5M), 2.0 ml of an aqueous Tris HCl (500 mM) solution, 0.1 ml of an EDTA solution (500 mM) and 46.97 ml of water. The resultant solution was 93 mM in NaCl, 20 mM in Tris HCl, and 1 mM in EDTA. Stock DNA solution were prepared as follows: Poly (dG·dC)-(dG·dC) (ε254=8.4/mM; 27-7910-02), poly(dA·dT)-(dA·dT) (ε262=6.6/mM; 27-7870-02), and lambda DNA (ε260-7.0/mM; 27-4111-01) were purchased from Pharmacia. Solutions were prepared by resuspending either poly (dG·dC)-(dG·dC) or poly(dA·dT)-(dA·dT)in 1 ml of 10× DNA Binding Solution. Lambda DNA is already in solution as purchased.
(§2) Poly (dG·dC)-(dG·dC), poly(dA·dt)-(dA·dt) and lambda DNA concentrations were determined as follows: 980 μl of 10× DNA Binding Solution was pipetted into a 1 ml cuvette. A blank was run on the UV spectrophotometer. 20 μl of the DNA stock of unknown concentration was then added into the cuvette. The sample was then scanned between 210 nm to 500 nm and the absorbance recorded at 254 nm for poly(dG·dC)-(dG·dC), at 262 nm for poly(dA·dT)-(dA·dT) and at 260 nm for lambda DNA. The solution was transferred to a clean tube. This procedure was followed for three different solutions with the absorbance taken as the average of the three. The concentration of poly(dG·dC)-(dG·dC) stock was calculated to be A254 /8.4×1000 (in μM). The concentration of poly(dA·dT)-(dA·dT) stock was calculated to be A262 /6.6×1000 (in μM). The concentration of lambda DNA stock was calculated to be A260 /7.0×1000 (in μM).
(§3) The binding of the bis-naphthalimides to DNA and to synthetic polynucleotide duplexes was determined by an ethidium bromide displacement assay that measures the reduction of fluorescence when ethidium bromide is displaced from DNA (Baguley, 1981). The fluorescence intensity of a 3 ml solution containing 9.3 mM NaCl, 2 mM Tris-HCl (pH 7.0), 100 μM EDTA, 1 μM DNA (in nucleotides) and 1.26 μM ethidium bromide in a quartz cuvette was measured at the excitation (546 nm) and emission (600 nm) wavelengths on a Shimadzu RF5000U spectrofluorometer. Graded concentrations of agent were then added and the fluorescence intensity was measured. The concentration of compound required to reduce the fluorescence intensity by 50% of that of control (FI50) was determined. Therefore, the lower the FI50 the stronger the binding affinity a particular compound has for DNA.
(§4) The ability of bis-naphthalimides of the present invention and the known anti-cancer agents compound 22 and DMP840, (R,R)-2,2'[1,2-ethanediylbis[imino(1-methyl-2,1-ethanediyl)]]-bis[5-nitro- 1H benz[de]isoquinoline-1,3-(2H)dione]dimethanesulfonate, to bind to DNA and to synthetic oligonucleotide duplexes was measured using an ethidium bromide displacement assay. Ethidium bromide, a known DNA intercalator, has no fluorescence in the absence of DNA; however, fluorescence intensity increases when ethidium bromide binds to DNA. The ethidium bromide displacement assay measures the decrease in fluorescence intensity caused by DNA-bound ethidium bromide with DNA interacting agents.

[2] = target: Lambda DNA; experiment: Ethidium bromide displacement, lambda DNA; format: binding; details: 1 μM DNA, 1.26 μM ethidium bromide, pH 7.0, read-out: FI50, Lambda DNA
Protocol: as §1, §2, §3, §4

Substance: 8-(3'-nitro-1',8'-naphthalimide)-3,6-diazaoctylamine dichloroplatinum(II) [Compound 21]
- Ratio (AT/GC) ([1]; FI50 poly(dA.dT)-poly(dA.dT) / FI50 poly(dG.dC)-poly(dG.dC)): 0.72
- IC50 ([1]; ethidium bromide displacement, 1 μM DNA, 1.26 μM ethidium bromide, pH 7.0, read-out: FI50, poly (dG.dC) - poly (dG.dC)): 239 nM
- IC50 [2]: 235 nM
